Laboratory results from patent US4345938A, “Herbicidal 2-haloacetanilides” (Monsanto Company, priority 1980, dated 1982).
Like-named read-outs stand apart in the source and are kept apart here.

Key:
Format in all cases: in vivo
[1] = test system: Cyperus serotinus; test: Greenhouse transplant rice test, CS; conditions: about 3 WAT, read-out: Percent Inhibition, CS; for inhibition at 280 g/ha: 0.28 Kg/Ha; for inhibition at 560 g/ha: 0.56 Kg/Ha; for inhibition at 1120 g/ha: 1.12 Kg/Ha; for inhibition at 2240 g/ha: 2.24 Kg/Ha
Source text: (§1) The test procedure used in this greenhouse test is as follows: Ray silt loam top soil containing about 0.05% by weight of krillium and sifted through a […] screen is fumigated about 5-10 days prior to use. Pots are then filled with said Ray silt loam soil to a level to allow for a 1 in. (2.54 cm) flooding depth. Rice plants (Bluebelle) of 2 to 3 weeks age are transplanted to the pots and bulbs or seeds of the test weeds also planted in the pots. The pots are then flooded and the test chemical applied to the surface of the flood water. The flood water is reduced to allow for germination of the Echinochloa crus-galli (barnyardgrass) seed and subsequently reflooded and maintained in that condition. Observations of percent inhibition using a scale of 0-100% are made about 3 weeks after transplant (WAT).
(§2) The test data in Table III for all compounds was obtained under identical test conditions. The weeds used in the tests herein have the following abbreviations in the tables: Echinochloa crus-galli (EC), Monochloria vaginalis (MV), Cyperus Serotinus (CS), Eleocharis Kuroguwai (EK) and Sagittaria trifolia (ST).

[2] = test system: Monochoria vaginalis; test: Field transplant rice test, applied 9 DAT, MV; conditions: for inhibition at 375 g/ha / inhibition at 750 g/ha / inhibition at 1500 g/ha / inhibition at 3000 g/ha: Pontederia vaginalis, 216 h, read-out: Percent Inhibition, MV; for inhibition at 375 g/ha: 0.375 Kg/Ha; for inhibition at 750 g/ha: 0.75 Kg/Ha; for inhibition at 1500 g/ha: 1.5 Kg/Ha; for inhibition at 3000 g/ha: 3.0 Kg/Ha
Procedure, shortened: (§3)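 Field test in transplanted rice, herbicides applied as granules (2.5% or 5.0% w/w active) 9 days after transplant at 3.0 down to 0.375 kg/ha. Weed control observed weekly from 3 to 7 weeks after transplant.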

[3] = test system: Monochoria vaginalis; test: Field transplant rice test, applied 0 DAT, MV; conditions: Pontederia vaginalis, 0 h, read-out: Percent Inhibition, MV; for inhibition at 375 g/ha: 0.375 Kg/Ha; for inhibition at 750 g/ha: 0.75 Kg/Ha; for inhibition at 1500 g/ha: 1.5 Kg/Ha; for inhibition at 3000 g/ha: 3.0 Kg/Ha
Procedure, shortened: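 Field test in transplanted rice, herbicide applied as granules (2.5% or 5.0% w/w active) at transplanting (0 DAT). Rates from 3.0 kg/ha down to 0.375 kg/ha. Weed control observed weekly from 2 to 6 weeks after transplant, reported at 2, 4 and 6 WAT.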

[4] = test system: Eleocharis kuroguwai; test: Field transplant rice test, applied 9 DAT, EK; conditions: for inhibition at 375 g/ha / inhibition at 750 g/ha / inhibition at 1500 g/ha / inhibition at 3000 g/ha: Eleocharis kuroguwai, 216 h, read-out: Percent Inhibition, EK; for inhibition at 375 g/ha: 0.375 Kg/Ha; for inhibition at 750 g/ha: 0.75 Kg/Ha; for inhibition at 1500 g/ha: 1.5 Kg/Ha; for inhibition at 3000 g/ha: 3.0 Kg/Ha
Procedure, shortened: as §3

[5] = test system: Echinochloa crus-galli; test: Field transplant rice test, applied 9 DAT, EC; conditions: for inhibition at 375 g/ha / inhibition at 750 g/ha / inhibition at 1500 g/ha / inhibition at 3000 g/ha: Echinochloa crus-galli, 216 h, read-out: Percent Inhibition, EC; for inhibition at 375 g/ha: 0.375 Kg/Ha; for inhibition at 750 g/ha: 0.75 Kg/Ha; for inhibition at 1500 g/ha: 1.5 Kg/Ha; for inhibition at 3000 g/ha: 3.0 Kg/Ha
Procedure, shortened: as §3

[6] = test system: Sagittaria trifolia; test: Field transplant rice test, applied 9 DAT, ST; conditions: 216 h, read-out: Percent Inhibition, ST; for inhibition at 375 g/ha: 0.375 Kg/Ha; for inhibition at 750 g/ha: 0.75 Kg/Ha; for inhibition at 1500 g/ha: 1.5 Kg/Ha; for inhibition at 3000 g/ha: 3.0 Kg/Ha
Procedure, shortened: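 Field test in transplant rice: herbicides applied 9 DAT as granules (2.5% or 5.0% by weight active) at 3.0 down to 0.375 kg/ha. Weed control observed weekly from 3 to 7 WAT.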

[7] = test system: Echinochloa crus-galli; test: Greenhouse transplant rice test, EC; conditions: about 3 WAT, read-out: Percent Inhibition, EC; for inhibition at 280 g/ha: 0.28 Kg/Ha; for inhibition at 560 g/ha: 0.56 Kg/Ha; for inhibition at 1120 g/ha: 1.12 Kg/Ha; for inhibition at 2240 g/ha: 2.24 Kg/Ha
Source text: as §1, §2

CCCCOCN(C(=O)CCl)c1c(CC)cccc1CC [Compound A, 2',6'-diethyl-N-(n-butoxymethyl)-2-chloroacetanilide]
inhibition at 280 g/ha [1]: 100% | inhibition at 560 g/ha [1]: 85% | inhibition at 1120 g/ha [1]: 90% | inhibition at 2240 g/ha [1]: 100% | inhibition at 375 g/ha ([2]; 3 WAT): 90% | inhibition at 375 g/ha ([2]; 5 WAT): 98% | inhibition at 375 g/ha ([2]; 7 WAT): 80% | inhibition at 750 g/ha ([2]; 3 WAT): 92% | inhibition at 750 g/ha ([2]; 5 WAT): 87% | inhibition at 750 g/ha ([2]; 7 WAT): 60% | inhibition at 1500 g/ha ([2]; 3 WAT): 100% | inhibition at 1500 g/ha ([2]; 5 WAT): 100% | inhibition at 1500 g/ha ([2]; 7 WAT): 100% | inhibition at 3000 g/ha ([2]; 3 WAT): 100% | inhibition at 3000 g/ha ([2]; 5 WAT): 100% | inhibition at 3000 g/ha ([2]; 7 WAT): 100% | selectivity factor (GR15/GR85), MV in transplant rice ([2]; between 3 WAT and 7 WAT): 8 | inhibition at 375 g/ha ([3]; 2 WAT): 98% | inhibition at 375 g/ha ([3]; 4 WAT): 87% | inhibition at 375 g/ha ([3]; 6 WAT): 82% | inhibition at 750 g/ha ([3]; 2 WAT): 100% | inhibition at 750 g/ha ([3]; 4 WAT): 98% | inhibition at 750 g/ha ([3]; 6 WAT): 100% | inhibition at 1500 g/ha ([3]; 2 WAT): 100% | inhibition at 1500 g/ha ([3]; 4 WAT): 100% | inhibition at 1500 g/ha ([3]; 6 WAT): 100% | inhibition at 3000 g/ha ([3]; 2 WAT): 100% | inhibition at 3000 g/ha ([3]; 4 WAT): 100% | inhibition at 3000 g/ha ([3]; 6 WAT): 100% | selectivity factor (GR15/GR85), EK in transplant rice ([4]; 3 WAT): non-selective | inhibition at 375 g/ha ([4]; 3 WAT): 40% | inhibition at 375 g/ha ([4]; 5 WAT): 22% | inhibition at 375 g/ha ([4]; 7 WAT): 3% | inhibition at 750 g/ha ([4]; 3 WAT): 37% | inhibition at 750 g/ha ([4]; 5 WAT): 12% | inhibition at 750 g/ha ([4]; 7 WAT): 3% | inhibition at 1500 g/ha ([4]; 3 WAT): 55% | inhibition at 1500 g/ha ([4]; 5 WAT): 25% | inhibition at 1500 g/ha ([4]; 7 WAT): 0% | inhibition at 3000 g/ha ([4]; 3 WAT): 68% | inhibition at 3000 g/ha ([4]; 5 WAT): 40% | inhibition at 3000 g/ha ([4]; 7 WAT): 0% | inhibition at 375 g/ha ([5]; 3 WAT): 23% | inhibition at 375 g/ha ([5]; 5 WAT): 20% | inhibition at 375 g/ha ([5]; 7 WAT): 17% | inhibition at 750 g/ha ([5]; 3 WAT): 80% | inhibition at 750 g/ha ([5]; 5 WAT): 75% | inhibition at 750 g/ha ([5]; 7 WAT): 70% | inhibition at 1500 g/ha ([5]; 3 WAT): 88% | inhibition at 1500 g/ha ([5]; 5 WAT): 90% | inhibition at 1500 g/ha ([5]; 7 WAT): 85% | inhibition at 3000 g/ha ([5]; 3 WAT): 93% | inhibition at 3000 g/ha ([5]; 5 WAT): 93% | inhibition at 3000 g/ha ([5]; 7 WAT): 90% | selectivity factor (GR15/GR85), EC in transplant rice ([5]; between 3 WAT and 7 WAT): 2 | inhibition at 375 g/ha ([6]; 3 WAT): 37% | inhibition at 375 g/ha ([6]; 5 WAT): 12% | inhibition at 375 g/ha ([6]; 7 WAT): 7% | inhibition at 750 g/ha ([6]; 3 WAT): 26% | inhibition at 750 g/ha ([6]; 5 WAT): 10% | inhibition at 750 g/ha ([6]; 7 WAT): 8% | inhibition at 1500 g/ha ([6]; 3 WAT): 35% | inhibition at 1500 g/ha ([6]; 5 WAT): 5% | inhibition at 1500 g/ha ([6]; 7 WAT): 3% | inhibition at 3000 g/ha ([6]; 3 WAT): 52% | inhibition at 3000 g/ha ([6]; 5 WAT): 23% | inhibition at 3000 g/ha ([6]; 7 WAT): 13% | inhibition at 280 g/ha [7]: 96% | inhibition at 560 g/ha [7]: 100% | inhibition at 1120 g/ha [7]: 100% | inhibition at 2240 g/ha [7]: 100%

CCCCOc1cccc(CC)c1N(CC)C(=O)CCl [Example 2, N-ethyl-2'-n-butoxy-6'-ethyl-2-chloroacetanilide]
inhibition at 280 g/ha [1]: 100% | inhibition at 560 g/ha [1]: 100% | inhibition at 1120 g/ha [1]: 100% | inhibition at 2240 g/ha [1]: 100% | inhibition at 280 g/ha [7]: 100% | inhibition at 560 g/ha [7]: 100% | inhibition at 1120 g/ha [7]: 100% | inhibition at 2240 g/ha [7]: 100%
